Patent publication US20230150951A1, “2,5- OR 2,6-DISUBSTITUTED HYDROQUINONE DERIVATIVES WITH AT LEAST ONE CARBOXY, SULFO OR AMIDO GROUP USEFUL AS MEDICAMENTS” (OM PHARMA SA, priority 2020, published 2023)
Like-named read-outs stand apart in the source and are kept apart here.

Experiments:
IL-18 = test: Cytokine release after LPS induction on human whole blood: IL-18; type: cell-based
Method: (§1) Aim of this in vitro method is to assess compounds effects on release of a panel of cytokines from whole blood following lipopolysaccharide (LPS) induced inflammatory reaction. Whole blood was incubated with compounds for 1 h prior to LPS induction. Cytokine levels in blood were measured using a multiplex FACS-based panel.
(§2) IC50 values determined for the tested compounds expressed in microM [μM] and the values for the inhibition of cytokines were listed for each compound.
(§3) Effect on cytokines release after LPS induction was performed on the compounds dissolved in DMSO or H2O to reach 10-fold concentrated stock solutions and dissolved in culture media.
(§4) Test system: Whole blood was removed from a single donor (into lithium heparin coated tubes; BD Vacutainer; 367886) and diluted 1:5 with RPMI 1640 (Thermo Fisher, 61870036). Within 30 minutes of sampling, blood was incubated with compounds for 1 h prior to LPS stimulation (O111:B4—Sigma L4391; 10 ng/ml final concentration). Stimulation continued under standard cell culture conditions (37° C. with 5% CO2) overnight (18 h), after which plates were centrifuged and supernatant removed and frozen at −80° C. until used for analyses.
(§5) Dilution of test compounds: 10×concentrated solutions (concerning to the final assay concentrations) of each test compound were prepared with the appropriate solvent (in DMSO or in water). These 10× compound solutions (10 μl) were then added to 90 μl pre-diluted whole blood (whole blood: RPMI1640, 1:5) resulting in the final assay concentration.
(§6) Test method: Diluted whole blood (80 μl) was pre-incubated with compounds (10 μl) to give final assay concentrations of 100, 30, 10, 3, 1, 0.3 and 0.1×10^−6M. Blood was incubated at 37° C. with 5% CO2 for 1 h. LPS was diluted in cell culture media to a concentration of […]; 10 μl was added to the whole blood to give a final concentration of 10 ng/ml. Plates were incubated at 37° C. for 18 h. Plates were centrifuged at 3,000 RPM for 5 minutes at 4° C. and supernatant removed and frozen at −80° C. until FACS analysis was carried out.
(§7) Cytokine release was measured using a custom multiplex system (ELISA Genie) according to manufacturers instructions. Prepared samples were run on an Attune NxT flow cytometer (Thermo Fisher).
(§8) Quantification of cytokine release inhibition: known concentration standards were run as part of the cytokine panel to allow quantification of each cytokine concentration in each sample. This was carried out using FCAP Array v3.0 software.
(§9) Results: The dose response relationship on cytokine release following LPS induction of inflammatory response in whole blood was assessed for all compounds. IC50 values were determined for each compound for a panel of cytokines (GM-CSF, IFN-gamma, IL-1beta, IL-2, IL-4, IL-5, IL-6, IL-8, IL-9, IL-10, IL-12p40, IL-13, IL-17A, IL-17F, IL-18, IL-21, IL-22, IL-33, TGF-beta, TNF-alpha, TNF-beta).

IL-33 = test: Cytokine release after LPS induction on human whole blood: IL-33; type: cell-based
Method: as §1, §2, §3, §4, §5, §6, §7, §8, §9

[1] = Homo sapiens, LPS 10 ng/ml, 18 h, read-out: Whole Blood: IL-18 IC50
[2] = human whole blood, inhibition of LPS induced inflammation, read-out: IC50 IL-18
[3] = Homo sapiens, LPS 10 ng/ml, 18 h, read-out: Whole Blood: IL-33 IC50
[4] = human whole blood, inhibition of LPS induced inflammation, read-out: IC50 IL-33

Structure (SMILES) | IC50 (IL-18; [1]) [µM] | IC50 (IL-18; [2]) [µM] | IC50 (IL-33; [3]) [µM] | IC50 (IL-33; [4]) [µM] | IC50 (IL-18; Homo sapiens, 18 h, read-out: Whole Blood: IL-18 IC50) [µM] | IC50 (IL-18; Homo sapiens, read-out: IC50 IL-18) [µM] | IC50 (IL-33; Homo sapiens, 18 h, read-out: Whole Blood: IL-33 IC50) [µM] | IC50 (IL-33; Homo sapiens, read-out: IC50 IL-33) [µM]
O=C(O)c1cc(NC(=O)c2cc(O)c(C(=O)Nc3ccccc3-c3nnn[nH]3)cc2O)ccc1O [Ic-001a-Tz/004a, 5-(4-(2-(1H-tetrazol-5-yl)phenylaminocarbonyl)-2,5-dihydroxybenzamido)-2-hydroxy benzoic acid] |  |  |  |  | 46.6 | 46.6 | 1.67 | 1.67
O=C(O)c1cc(NC(=O)c2cc(O)cc(C(=O)Nc3ccc(O)c(C(=O)O)c3)c2O)ccc1O [IIc-007a, 5-(3-(3-carboxy-4-hydroxyphenylaminocarbonyl)-2,5-dihydroxybenzamido)-2-hydroxy benzoic acid] | > 100 | 100 | 0.18 | 0.18 |  |  |  | 
O=C(O)c1cc(NC(=O)c2cc(O)c(C(=O)Nc3ccc(O)c(C(=O)O)c3)cc2O)ccc1O [Ic-007a, 5-(4-(3-carboxy-4-hydroxyphenylaminocarbonyl)-2,5-dihydroxybenzamido)-2-hydroxy benzoic acid] | > 100 | 100 | 18.4 | 18.4 |  |  |  | 
O=C(O)c1cc(O)c(C(=O)Nc2ccccc2C(=O)O)cc1O [Ia-001a, 4-(2-carboxyphenylaminocarbonyl)-2,5-dihydroxybenzoic acid] | > 100 | 100 | 19.3 | 19.3 |  |  |  | 
CCOC(=O)c1cc(NC(=O)c2cc(O)c(C(=O)OCC)cc2O)cc(NC(=O)c2cc(O)c(C(=O)OCC)cc2O)c1 [Ib-010a-E3, ethyl 3,5-bis(2,5-dihydroxy-4-ethoxycarbonylbenzoylamino)benzoate] | > 100 | 100 | 20 | 20 |  |  |  | 
O=C(O)c1ccccc1CNC(=O)c1cc(O)cc(C(=O)O)c1O [IIa-053a, 3-(2-Carboxyphenylmethylaminocarbonyl)-2,5-dihydroxybenzoic acid] | > 100 | 100 | 12.1 | 12.1 |  |  |  | 
O=C(O)c1cc(O)c(C(=O)Nc2ccccc2-c2nnn[nH]2)cc1O [Ia-001a-Tz, 4-(2-(1H-tetrazol-5-yl)phenyl-aminocarbonyl)-2,5-dihydroxybenzoic acid] | > 100 | 100 | 23.6 | 23.6 |  |  |  | 
CC(=O)N(Cc1cc(O)c(C(=O)O)cc1O)Cc1cc(O)c(C(=O)O)cc1O [IIIc-057a, N,N-Bis(4-carboxy-2,5-dihydroxyphenylmethyl)acetamide] | > 100 | 100 | 2.93 | 2.93 |  |  |  | 
O=C(O)c1cc(O)c(C(=O)Nc2ccc(-c3nnn[nH]3)cc2)cc1O [Ia-003a-Tz, 4-(4-(1H-tetrazol-5-yl)phenyl-aminocarbonyl)-2,5-dihydroxybenzoic acid] | > 100 | 100 | 72.2 | 72.2 |  |  |  | 
O=C(O)Cc1cc(O)c(C(=O)Nc2c(C(=O)O)cccc2C(=O)O)cc1O [IIIa-013a, 2-(4-(carboxymethyl)-2,5-dihydroxybenzamido)isophthalic acid] | > 100 | 100 | 1.11 | 1.11 |  |  |  | 

Second part, led by results:

IC50 (IL-18; [1]) [µM] | IC50 (IL-18; [2]) [µM] | IC50 (IL-33; [3]) [µM] | IC50 (IL-33; [4]) [µM] | Structure (SMILES) | IC50 (IL-18; Homo sapiens, 18 h, read-out: Whole Blood: IL-18 IC50) [µM] | IC50 (IL-18; Homo sapiens, read-out: IC50 IL-18) [µM] | IC50 (IL-33; Homo sapiens, 18 h, read-out: Whole Blood: IL-33 IC50) [µM] | IC50 (IL-33; Homo sapiens, read-out: IC50 IL-33) [µM]
> 100 | 100 | 0.24 | 0.24 | O=C(O)c1cc(NC(=O)c2cc(O)c(C(=O)O)cc2O)cc(C(=O)O)c1 [Ia-015a, 5-(4-carboxy-2,5-dihydroxybenzamido)isophthalic acid] |  |  |  | 
> 100 | 100 | 33.9 | 33.9 | O=C(O)c1cc(O)cc(CSCc2cc(O)cc(C(=O)O)c2O)c1O [IVc-058a, 3-((2,5-Dihydroxy-3-carboxyphenyl)methylthiomethyl)-2,5-dihydroxybenzoic acid] |  |  |  | 
32.4 | 32.4 | 0.31 | 0.31 | O=C(O)c1cc(O)c(CN(Cc2cc(O)c(C(=O)O)cc2O)Cc2cc(O)c(C(=O)O)cc2O)cc1O [IIIc-061a, Tris(4-carboxy-2,5-dihydroxyphenylmethyl)amine] |  |  |  | 
> 100 | 100 | 31.3 | 31.3 | O=C(O)c1cc(NC(=O)c2cc(O)c(C(=O)O)cc2O)cc(NC(=O)c2cc(O)c(C(=O)O)cc2O)c1 [Ib-010a, 3,5-bis(2,5-dihydroxy-4-carboxybenzoylamino)benzoic acid] |  |  |  | 
> 100 | 100 | > 100 | 100 | O=C(O)c1cc(O)c(C(=O)Nc2ccccc2S(=O)(=O)O)cc1O [Ia-001c, 2,5-dihydroxy-4-(2-sulfophenylaminocarbonyl)benzoic acid] |  |  |  | 
27.7 | 27.7 | 0.14 | 0.14 | O=C(O)Cc1cc(O)c(C(=O)Nc2ccccc2-c2nnn[nH]2)cc1O [IIIa-001aTz] |  |  |  | 
> 100 | 100 | 23.2 | 23.2 | COC(=O)c1cc(OC(C)=O)cc(CS(=O)(=O)Cc2cc(OC(C)=O)cc(C(=O)OC)c2OC(C)=O)c1OC(C)=O [IVc-059a-E2-A4] |  |  |  | 
33.9 |  | 0.23 |  | O=C(Nc1ccccc1-c1nnn[nH]1)c1cc(O)c(C(=O)Nc2ccccc2-c2nnn[nH]2)cc1O [Ic-001aTz2, N1,N4-bis(2-(1H-tetrazol-5-yl)phenyl)-2,5-dihydroxyterephthalamide] |  |  |  | 
> 100 | 100 | 27.5 | 27.5 | O=C(O)c1cc(O)cc(CS(=O)(=O)Cc2cc(O)cc(C(=O)O)c2O)c1O [IVc-059a, 3-((2,5-Dihydroxy-3-carboxyphenyl)methylsulfonylmethyl)-2,5-dihydroxybenzoic acid] |  |  |  | 
2.95 | 2.95 | 0.29 | 0.29 | O=C(O)c1cc(O)ccc1NC(=O)c1cc(O)cc(C(=O)Nc2ccc(O)cc2C(=O)O)c1O [IIc-009a, 2-(3-(2-carboxy-4-hydroxyphenylaminocarbonyl)-2,5-dihydroxybenzamido)-5-hydroxyl benzoic acid] |  |  |  | 
